Test [1] concerns dry eye model. As to the kind of experiment: Tear film breakup time (BUT) test, dry eye model by erlotinib instillation (Example 1). It is filed as in vivo. To be noted: 0.003% (w/v) apocynin in PBS, 3 μL twice daily, two weeks after start of instillation; erlotinib-instilled C57BL6 mice; FIG. 1. From the text: (§1) After acclimating male C57BL6 mice (7 weeks old) to the experimental environment, those with almost uniform body weight values and no eye abnormalities were divided into the following 3 groups (n=5). • 7 weeks old/normal (non-dry eye group) • 7 weeks old/dry eye model+control (solvent eye drop) group • 7 weeks old/dry eye model+apocynin eye drop group The dry eye model was created by daily instillation of an EGF receptor inhibitor (erlotinib) based on the method of Yang et al. In this model, administration of erlotinib causes dry eye symptoms such as shortened BUT, decreased tear volume, and corneal damage after 1 week of administration (Non-patent Document 3). After 20 μM of erlotinib was instilled for 2 weeks, the control group received PBS alone, and the test group received 3 μL of a suspension of 0.003% (w/v) apocynin in PBS twice daily. Two weeks after the start of instillation, 1 μL of 0.1% sodium fluorescein solution was instilled into each of both eyes under isoflurane anesthesia, and a BUT test was performed using a slit lamp (Kowa Co., Ltd., SL-17) (FIG. 1). […] Under anesthesia, the tip of a Schirmer test paper cut to 1 mm width was inserted into the conjunctival sac of the lower eyelid of the mouse, the test paper was removed after 5 minutes, the length of the wetted part was read in units of 0.5 mm, and the value was used as the tear volume (FIG. 2).

Test [2] concerns dry eye model. Nature of the test: Schirmer test (tear volume), dry eye model by erlotinib instillation (Example 1). It is filed as in vivo. The conditions noted are these: 0.003% (w/v) apocynin in PBS, 3 μL twice daily, two weeks after start of instillation; erlotinib-instilled C57BL6 mice; FIG. 2.
From the text: as §1

Test [3] has as its system dry eye model. Nature of the test: Fluorescein staining score, dry eye model by 0.2% benzalkonium chloride instillation (Example 2). It is filed as in vivo, mice. To be noted: 0.003% (w/v) apocynin in PBS, 3 μL 4 times daily, two days after start; 0.2% benzalkonium chloride model; FIG. 4. The source says: After acclimating male C57BL6 mice ([…]) to the experimental environment, those with almost uniform weight values and no eye abnormalities were divided into the following 3 groups (n=3). • 7 weeks old/normal (non-dry eye group) • 7 weeks old/dry eye model+control (solvent eye drop) group • 7 weeks old/dry eye model+apocynin eye drop group The dry eye model was created by instilling a 0.2% benzalkonium chloride solution based on the method of Lin et al. (Non-patent Document 4). In this model, instillation of the 0.2% benzalkonium chloride solution causes dry eye symptoms such as shortened BUT, decreased tear volume, and corneal epithelial damage after 1 day of administration (Non-patent Document 4). After the benzalkonium chloride solution was instilled twice daily for 2 days, PBS alone was administered to the control group, and for the test group, a solution of apocynin 0.003% (w/v) suspended in PBS was administered to both eyes at 3 μL each, 4 times daily. Two days after the start of apocynin instillation, 1 μL of 0.1% fluorescein sodium solution was instilled into each of both eyes under isoflurane anesthesia, and stained images were taken under a blue filter using a slit lamp (Kowa Co., Ltd., SL-17). The fluorescein staining scores were analyzed (FIG. 4).

Test [4] has as its system dry eye model. Nature of the test: Tear film breakup time (BUT) test, dry eye model by systemic (intraperitoneal) erlotinib (Example 3). The conditions noted are these: 0.003% (w/v) apocynin in PBS, 3 μL twice a day, one week after start; erlotinib 50 mg/kg/day i.p. model; FIG. 5. It is filed as in vivo, mice. As for the experimental part:
After acclimating male C57BL6 mice (7 weeks old) to the experimental environment, those with almost uniform body weight values and no eye abnormalities were divided into the following 3 groups (n=4). • 7 weeks old/normal (non-dry eye group) • 7 weeks old/dry eye model+control (solvent eye drop) group • 7 weeks old/dry eye model+apocynin eye drop group The dry eye model was prepared by dissolving erlotinib at a concentration of 5 mg/ml in 0.5% methylcellulose solution and administering it by intraperitoneal injection at a concentration of 50 mg/kg/day daily from the start of the study. The solvent 0.5% methylcellulose solution was similarly administered to the normal non-administration group. After one week of administration of erlotinib, the control group received PBS alone, and the test group received a solution of 0.003% (w/v) apocynin suspended in PBS twice a day at both eyes with 3 μL each. One week after the start of instillation, 1 μL of 0.1% sodium fluorescein solution was instilled into each of both eyes under isoflurane anesthesia, and the BUT test was performed under a blue filter using a slit lamp (Kowa Co., Ltd., SL-17) (FIG. 5).

In test [5] the test system is dry eye model. Nature of the test: Schirmer test (tear volume), 0.2% benzalkonium chloride dry eye model, Comparative Study 2 (Example 5). The format is in vivo, mice. To be noted: 2 days after start, compared to hyaluronic acid and diquafosol sodium groups, FIG. 10. From the text: After acclimating male C57BL6 mice (7 weeks old) to the experimental environment, those with almost uniform weight values and no eye abnormalities were divided into the following groups (n=3 to 4). • 7 weeks old/normal (non-dry eye group) • 7 weeks old/dry eye model+control (solvent eye drop) group • 7 weeks old/dry eye model+0.003% (w/v) apocynin eye drop group • 7 weeks old/dry eye model+0.03% (w/v) apocynin eye drop group • 7 weeks old/dry eye model+3% diquafosol sodium eye drop group • 7 weeks old/dry eye model+0.5% (w/v) hyaluronic acid eye drop group A dry eye model was created by instilling 3 μL of the 0.2% benzalkonium chloride solution into each of both eyes twice a day for 8 days. Then, the control group received PBS alone, and the test group received 0.003% (w/v), 0.03% (w/v) apocynin and 0.5% (w/v) hyaluronic acid in PBS. The 3% diquafosol sodium eye drop was instilled into each of both eyes at 3 μL, twice a day for 9 days. Two days after the start of instillation of the comparative test drug, the Schirmer test was performed to evaluate the tear volume.

Consider `COc1cc(C(C)=O)ccc1O` [apocynin, 4-hydroxy-3-methoxyacetophenone], for which the “tear film breakup time (BUT)” value in test [1] was “improved the shortening of BUT”; in test [4], “significantly improved”. Besides, the results for the “tear volume (Schirmer test)” value in test [2], in test [5] (0.003% apocynin eye drop) and in test [5] (0.03% apocynin eye drop) were “improved”, “significantly improved” and “significantly improved”, respectively. The “corneal epithelial damage (fluorescein staining score)” value in test [3] is given as “significantly improved”.

The values above are taken from patent publication US20230338307A1, “PROPHYLACTIC AGENT, AMELIORATING AGENT, AND THERAPEUTIC AGENT FOR DRY EYE” (TSUBOTA LABORATORY, INC., priority 2020, published 2023).
